Experimental data published in patent US20240376085A1 (Janssen Pharmaceutica NV, priority 2021, published 2024).

Columns and labels:
[1] = target: T1, IL-17A : IL-17RA binding (Homo sapiens, UniProt Q16552, K93Q); test: IL-17A(FLAG-tagged):IL-17RA(His-tagged) binding disruption Eu-HTRF assay, Protocol 1; conditions: FLAG-IL-17A 2.5 nM at 2x final concentration; average if tested more than once
T1 construct: Name: IL-17A-Flag
Outline: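 IC50 came from a one-site competition fit of the acceptor/donor (665/620 nm) HTRF ratio. His-tagged IL-17RA, Eu-anti-FLAG and D2-anti-His were added after a 1 h rt compound preincubation with FLAG-tagged IL-17A dimer in PBS/0.01% Triton X-100, followed by 2 h at rt before reading.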

[2] = tested on: IL-17A-induced G-CSF production in human normal keratinocyte (NHK); test: NHK assay: IL-17A-induced G-CSF production in normal human keratinocytes; type: cell-based; conditions: Homo sapiens, Keratinocyte, 24 h, IL-17A 5 ng/mL, average if tested more than once
Outline: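 Stimulus rhIL-17A 5 ng/mL final, premixed 1 h rt with compound; adult NHK, 5% FBS, 0.2% DMSO. Viability by CellTiter-Glo vs DMSO.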

T1 sequence (Q16552 with tags, fused parts or gaps K93Q): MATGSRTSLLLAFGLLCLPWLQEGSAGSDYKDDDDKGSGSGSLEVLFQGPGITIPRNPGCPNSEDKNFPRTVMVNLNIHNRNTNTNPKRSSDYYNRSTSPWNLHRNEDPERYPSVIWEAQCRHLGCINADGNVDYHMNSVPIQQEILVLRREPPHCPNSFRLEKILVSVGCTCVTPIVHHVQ

Compound | IC50 [1] [nM] | IC50 [2] [nM]
CC(C)n1nccc1C(=O)N[C@H](c1nc2cc([C@@H](NC(=O)CC3CC(F)(F)C3)C3CC3)ccc2[nH]1)C1CCC(F)(F)CC1 [Example 146, N—((S)-(5-((S)-Cyclopropyl(2-(3,3-difluorocyclobutyl)acetamido)methyl)-1H-benzo[d]imidazol-2-yl)(4,4-difluorocyclohexyl)methyl)-1-isopropyl-1H-pyrazole-5-carboxamide] | > 100 | > 100
O=C(N[C@H](c1nc2cc([C@H](NC(=O)C(F)(F)CC3CC3)C3CC3)ccc2[nH]1)C1CCC(F)(F)CC1)c1nonc1C1CC1 [Example 147, 4-Cyclopropyl-N—((S)-(5-((R)-cyclopropyl(3-cyclopropyl-2,2-difluoropropanamido)methyl)-1H-benzo[d]imidazol-2-yl)(4,4-difluorocyclohexyl)methyl)-1,2,5-oxadiazole-3-carboxamide] | 50 to 100 | < 50
CC(C)n1nccc1C(=O)N[C@@H](CC1CC2(C1)CC(F)(F)C2)c1nc2ccc([C@H](NC(=O)CC3CC(F)(F)C3)C3CC3)cc2[nH]1 (stereo partly drawn) [Example 148, N—((S)-1-(6-((R)-Cyclopropyl(2-(3,3-difluorocyclobutyl)acetamido)methyl)-1H-benzo[d]imidazol-2-yl)-2-(6,6-difluorospiro[3.3]heptan-2-yl)ethyl)-1-isopropyl-1H-pyrazole-5-carboxamide] | > 100 | > 100
CC(C)(OC[C@H](NC(=O)c1nonc1C1CC1)c1nc2ccc([C@H](NC(=O)CC3CC(F)(F)C3)C3CC3)cc2[nH]1)C(F)(F)F [Example 159, 4-Cyclopropyl-N—((R)-1-(6-((R)-cyclopropyl(2-(3,3-difluorocyclobutyl)acetamido)methyl)-1H-benzo[d]imidazol-2-yl)-2-((1,1,1-trifluoro-2-methylpropan-2-yl)oxy)ethyl)-1,2,5-oxadiazole-3-carboxamide] | < 50 | < 50
CC(C)n1nccc1C(=O)N[C@@H](COC(C)(C)C(F)(F)F)c1nc2cc([C@H](NC(=O)CC3CC(F)(F)C3)C3CC3)ccc2[nH]1 [Example 160, N—((R)-1-(5-((R)-Cyclopropyl(2-(3,3-difluorocyclobutyl)acetamido)methyl)-1H-benzo[d]imidazol-2-yl)-2-((1,1,1-trifluoro-2-methylpropan-2-yl)oxy)ethyl)-1-isopropyl-1H-pyrazole-5-carboxamide] | < 50 | < 50
CC(C)(OC[C@H](NC(=O)c1nonc1C1CC1)c1nc2cc([C@H](NC(=O)CC34CC(F)(C3)C4)C3CC3)ccc2[nH]1)C(F)(F)F [Example 166, 4-Cyclopropyl-N—((R)-1-(5-((R)-cyclopropyl(2-(3-fluorobicyclo[1.1.1]pentan-1-yl)acetamido)methyl)-1H-benzo[d]imidazol-2-yl)-2-((1,1,1-trifluoro-2-methylpropan-2-yl)oxy)ethyl)-1,2,5-oxadiazole-3-carboxamide] | < 50 | < 50
[2H]C([2H])([2H])n1nccc1C(=O)N[C@@H](COC(C)(C)C(F)(F)F)c1nc2cc([C@H](NC(=O)CC3CC(F)(F)C3)C3CC3)ccc2[nH]1 [Example 167, N—((R)-1-(5-((R)-Cyclopropyl(2-(3,3-difluorocyclobutyl)acetamido)methyl)-1H-benzo[d]imidazol-2-yl)-2-((1,1,1-trifluoro-2-methylpropan-2-yl)oxy)ethyl)-1-(methyl-d3)-1H-pyrazole-5-carboxamide] | 50 to 100 | 50 to 100
CC(C)(O)c1nonc1C(=O)N[C@@H](COC(C)(C)C(F)(F)F)c1nc2cc([C@H](NC(=O)CC3CC(F)(F)C3)C3CC3)ccc2[nH]1 [Example 168, N—((R)-1-(5-((R)-Cyclopropyl(2-(3,3-difluorocyclobutyl)acetamido)methyl)-1H-benzo[d]imidazol-2-yl)-2-((1,1,1-trifluoro-2-methylpropan-2-yl)oxy)ethyl)-4-(2-hydroxypropan-2-yl)-1,2,5-oxadiazole-3-carboxamide] | 50 to 100 | > 100
